The record followed here is US20110053916A1 (Vertex Pharmaceuticals Incorporated, priority 2009, published 2011).

Structures can show the parent of a compound that is named as a salt. A value given as a limit tells only on which side of the number the result lay.

One test deals with T1, PknB (Mycobacterium tuberculosis, UniProt P9WI81).
T1 construct: made in house
T1 sequence (P9WI81 whole entry): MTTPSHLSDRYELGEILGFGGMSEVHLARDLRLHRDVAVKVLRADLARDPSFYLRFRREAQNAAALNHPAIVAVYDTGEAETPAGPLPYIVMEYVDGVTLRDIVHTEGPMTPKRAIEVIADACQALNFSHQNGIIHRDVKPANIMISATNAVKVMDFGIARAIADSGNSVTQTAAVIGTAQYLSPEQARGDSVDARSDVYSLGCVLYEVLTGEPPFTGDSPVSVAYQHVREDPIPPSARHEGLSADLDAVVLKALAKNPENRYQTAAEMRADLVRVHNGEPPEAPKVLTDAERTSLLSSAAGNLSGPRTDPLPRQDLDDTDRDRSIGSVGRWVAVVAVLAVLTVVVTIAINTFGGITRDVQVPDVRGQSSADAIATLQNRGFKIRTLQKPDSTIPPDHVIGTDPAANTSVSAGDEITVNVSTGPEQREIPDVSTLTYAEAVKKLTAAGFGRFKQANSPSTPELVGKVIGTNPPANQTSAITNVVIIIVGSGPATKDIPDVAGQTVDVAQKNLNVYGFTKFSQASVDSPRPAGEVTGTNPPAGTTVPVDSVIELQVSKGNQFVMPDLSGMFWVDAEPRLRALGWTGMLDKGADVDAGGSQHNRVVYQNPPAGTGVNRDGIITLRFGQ
Kind of test: biochemical.
Conditions: not given
Also noted: species or system M. tuberculosis.
Consider `C#Cc1cnc(-c2ccc(C(=O)OC)s2)nc1Nc1cc(C2CC2)[nH]n1` [Compound 151, Methyl 5-(4-(5-cyclopropyl-1H-pyrazol-3-ylamino)-5-ethynylpyrimidin-2-yl)thiophene-2-carboxylate hydrochloride], for which the “Ki Values” is listed as “A**, A*”.

Still in this test, the particulars now being: 3 nM PknB, 6 uM GarA, 3 μM ATP, 30 min; competitive tight-binding fit; several symbols in a cell = repeat determinations.
For `C#Cc1cnc(-c2ccc(C(=O)NCCNC(C)=O)s2)nc1Nc1cc(C2CC2)n[nH]1` [Compound 206, N-(2-acetamidoethyl)-5-(4-(5-cyclopropyl-1H-pyrazol-3-ylamino)-5-ethynylpyrimidin-2-yl)thiophene-2-carboxamide], the “Ki Values” is reported as “B**, B**, B*”. Consider `CCc1cnc(N2CCCCC2)nc1Nc1cc(C2CC2)[nH]n1` [Compound 45, N-(5-cyclopropyl-1H-pyrazol-3-yl)-5-ethyl-2-(1-piperidyl)pyrimidin-4-amine], for which the “Ki Values” is reported as “C, D”. As to `NS(=O)(=O)c1cc(-c2ncc(Cl)c(Nc3cc(C4CC4)[nH]n3)n2)ccc1Cl` [Compound 58, 2-chloro-5-[5-chloro-4-[(5-cyclopropyl-1H-pyrazol-3-yl)amino]-pyrimidin-2-yl]-benzenesulfonamide], the “Ki Values” was “B, C, C”. For the compound `COc1cnc(N2CCCCC2)nc1Nc1cc(C2CC2)[nH]n1` [Compound 68, N-(5-cyclopropyl-1H-pyrazol-3-yl)-5-methoxy-2-(1-piperidyl)pyrimidin-4-amine], the “Ki Values” is recorded as “A, B**”. For `c1cc(Nc2cc(C3CC3)[nH]n2)nc(N2CCC(N3CCCCC3)CC2)n1` [Compound 65, N-(5-cyclopropyl-1H-pyrazol-3-yl)-2-[4-(1-piperidyl)-1-piperidyl]-pyrimidin-4-amine], the “Ki Values” was “C, D, D”. Regarding `C#Cc1cnc(-c2ccc(CNC(=O)OC(C)(C)C)s2)nc1Nc1cc(C2CC2)[nH]n1` [Compound 168, Tert-butyl (5-(4-(5-cyclopropyl-1H-pyrazol-3-ylamino)-5-ethynylpyrimidin-2-yl)thiophen-2-yl)methylcarbamate], the “Ki Values” was “B**, B**, B”.

The same test, now with this note: 3 nM PknB, 6 uM GarA, 3 μM ATP, 30 min; competitive tight-binding fit; several symbols in a cell = repeat determinations; read-out: Ki Values.
The Ki is the dissociation constant of the complex between target and ligand, obtained from inhibition or displacement. For the compound `OCc1ccc(-c2nccc(Nc3cc(C4CC4)[nH]n3)n2)s1` [Compound 22, (5-(4-(5-cyclopropyl-1H-pyrazol-3-ylamino)pyrimidin-2-yl)thiophen-2-yl)methanol], the inhibition constant (Ki) was 0.01 to 0.05 µM. With `NC(=O)c1cc(-c2ncc(F)c(Nc3cc(C4CC4)[nH]n3)n2)ccc1Cl` [Compound 34, 2-chloro-5-[4-[(5-cyclopropyl-1H-pyrazol-3-yl)amino]-5-fluoro-pyrimidin-2-yl]-benzamide], the Ki lay within 0.01 to 0.05 µM.

`CC(=O)Nc1cnc(-c2ccc(S(N)(=O)=O)s2)nc1Nc1cc(C2CC2)[nH]n1` [Compound 241, N-[4-[(5-cyclopropyl-1H-pyrazol-3-yl)amino]-2-(5-sulfamoyl-2-thienyl)-pyrimidin-5-yl]acetamide]: the Ki lay in the range of 0.05 to 0.1 µM. Take `Cc1cnc(-c2ccc(C(O)CO)s2)nc1Nc1cc(C2CC2)[nH]n1` (stereo not shown) [Compound 326, 1-[5-[4-[(5-cyclopropyl-1H-pyrazol-3-yl)amino]-5-methyl-pyrimidin-2-yl]-2-thienyl]ethane-1,2-diol]: the Ki was in the range of 0.01 to 0.05 µM. On to `C#Cc1cnc(-c2ccc(CC#N)s2)nc1Nc1cc(C2CC2)n[nH]1` [Compound 130, 2-(5-(4-(3-Cyclopropyl-1H-pyrazol-5-ylamino)-5-ethynylpyrimidin-2-yl)thiophen-2-yl)acetonitrile], for which the Ki was 0.001 to 0.01 µM. For `CCc1cnc(N2CCN(C)CC2)nc1Nc1cc(C2CC2)[nH]n1` [Compound 46, N-(5-cyclopropyl-1H-pyrazol-3-yl)-5-ethyl-2-(4-methylpiperazin-1-yl)-pyrimidin-4-amine], the inhibition constant Ki is greater than 4 µM. For the compound `NC(=O)c1cccc(Nc2nccc(Nc3cc(C4CC4)[nH]n3)n2)c1` [Compound 125, 3-[[4-[(5-cyclopropyl-1H-pyrazol-3-yl)amino]pyrimidin-2-yl]amino]benzamide], the Ki is 0.5 to 1 µM. On the same count and under the same terms, for `NS(=O)(=O)c1ccc(-c2ncc(Cl)c(Nc3cc(C4CC4)[nH]n3)n2)s1` [Compound 42, 5-(5-chloro-4-(5-cyclopropyl-1H-pyrazol-3-ylamino)pyrimidin-2-yl)thiophene-2-sulfonamide] the value was 0.001 to 0.01 µM. As for `NS(=O)(=O)c1ccc(-c2ncc(Cl)c(Nc3cc(C4CC4)[nH]n3)n2)cc1` [Compound 121, 4-[5-chloro-4-[(5-cyclopropyl-1H-pyrazol-3-yl)amino]-pyrimidin-2-yl]benzenesulfonamide], the inhibition constant (Ki) was 0.01 to 0.05 µM.

Take `C[C@@H]1C[C@H]1c1cc(Nc2nc(-c3ccc(S(N)(=O)=O)s3)ncc2Cl)n[nH]1` (relative stereo) [Compound 320, 5-(5-chloro-4-(5-(trans-2-methylcyclopropyl)-1H-pyrazol-3-ylamino)pyrimidin-2-yl)thiophene-2-sulfonamide]: the Ki lay in the range of 0.001 to 0.01 µM.

Consider `Cc1cnc(-c2ccc(CC#N)cc2)nc1Nc1cc(C2CC2)[nH]n1` [Compound 24, 2-(4-(4-(5-cyclopropyl-1H-pyrazol-3-ylamino)-5-methylpyrimidin-2-yl)phenyl)acetonitrile], for which the inhibition constant Ki lay within 0.01 to 0.05 µM. With `c1cc(Nc2cc(C3CC3)[nH]n2)nc(Nc2ccc3[nH]ncc3c2)n1` [Compound 13, N4-(5-cyclopropyl-1H-pyrazol-3-yl)-N2-(1H-indazol-5-yl)pyrimidine-2,4-diamine], the Ki was 0.01 to 0.05 µM. In the case of `C#Cc1cnc(N2CCN(C)CC2)nc1Nc1cc(C2CC2)[nH]n1` [Compound 177, N-(5-cyclopropyl-1H-pyrazol-3-yl)-5-ethynyl-2-(4-methylpiperazin-1-yl)-pyrimidin-4-amine], the Ki was in the range of 2 to 4 µM. Take `COC/C=C/c1cnc(-c2ccccc2)nc1Nc1cc(C2CC2)[nH]n1` [Compound 39, (E)-N-(5-cyclopropyl-1H-pyrazol-3-yl)-5-(3-methoxyprop-1-enyl)-2-phenylpyrimidin-4-amine]: the inhibition constant (Ki) fell in the range of 0.5 to 1 µM. For the compound `CC(C)(C)NS(=O)(=O)C/C=C/c1cccc(Nc2cc(C3CC3)[nH]n2)n1` [Compound 269, 3-[6-[(5-cyclopropyl-1H-pyrazol-3-yl)amino]-2-pyridyl]-N-tert-butyl-prop-2-ene-1-sulfonamide], the Ki fell in the range of 0.1 to 0.5 µM. The same measure, in the same setting: for `Cc1nc(-c2ncc(Cl)c(Nc3cc(C4CC4)[nH]n3)n2)sc1C(C)O` (stereo not shown) [Compound 296, 1-(2-(5-chloro-4-(5-cyclopropyl-1H-pyrazol-3-ylamino)pyrimidin-2-yl)-4-methylthiazol-5-yl)ethanol] the value was 0.1 to 0.5 µM; for `CN1CCN(c2nccc(Nc3cc(C4CC4)[nH]n3)n2)CC1` [Compound 47, N-(5-cyclopropyl-1H-pyrazol-3-yl)-2-(4-methylpiperazin-1-yl)-pyrimidin-4-amine], greater than 4 µM; for `NS(=O)(=O)c1ccc(-c2nc(Nc3cc(C4CC4)n[nH]3)ncc2Cl)s1` [Compound 314, 5-[5-chloro-2-[(5-cyclopropyl-2H-pyrazol-3-yl)amino]-pyrimidin-4-yl]thiophene-2-sulfonamide], 0.001 to 0.01 µM. Regarding `COCc1cnc(N2CCN(C)CC2)nc1Nc1cc(C2CC2)[nH]n1` [Compound 69, N-(5-cyclopropyl-1H-pyrazol-3-yl)-5-(methoxymethyl)-2-(4-methylpiperazin-1-yl)-pyrimidin-4-amine], the inhibition constant (Ki) was greater than 4 µM.

For the compound `Brc1c(C2CC2)n[nH]c1Nc1ccnc(-c2ccccc2)n1` [Compound 7, N-(4-bromo-5-cyclopropyl-2H-pyrazol-3-yl)-2-phenyl-pyrimidin-4-amine], the Ki was greater than 4 µM. For `NS(=O)(=O)c1cccc(Nc2nccc(Nc3cc(C4CC4)n[nH]3)n2)c1` [Compound 82], the Ki lay within 0.05 to 0.1 µM.

In the case of `C[S+]([O-])c1ccc(-c2ncc(Cl)c(Nc3cc(C4CC4)[nH]n3)n2)s1` (stereo not shown) [Compound 264, 5-chloro-N-(5-cyclopropyl-1H-pyrazol-3-yl)-2-(5-methylsulfinyl-2-thienyl)-pyrimidin-4-amine], the inhibition constant (Ki) fell in the range of 0.001 to 0.01 µM.

For `NS(=O)(=O)c1ccc(-c2ncc(Cl)c(Nc3cc(C4CC4)[nH]n3)n2)cn1` [Compound 299, 5-[5-chloro-4-[(5-cyclopropyl-1H-pyrazol-3-yl)amino]-pyrimidin-2-yl]pyridine-2-sulfonamide], the Ki was in the range of 0.01 to 0.05 µM. Regarding `NS(=O)(=O)c1ccc(-c2ncc(Cl)c(Nc3cc[nH]n3)n2)s1` [Compound 221, 5-[5-chloro-4-(1H-pyrazol-3-ylamino)-pyrimidin-2-yl]thiophene-2-sulfonamide], the Ki lay in the range of 0.001 to 0.01 µM. Same read-out and setting: for `CCOC(=O)C(=O)c1ccc(-c2ncc(Cl)c(Nc3cc(C4CC4)[nH]n3)n2)s1` [Compound 189, ethyl 2-(5-(5-chloro-4-(5-cyclopropyl-1H-pyrazol-3-ylamino)pyrimidin-2-yl)thiophen-2-yl)-2-oxoacetate] the value was 0.05 to 0.1 µM. Consider `NS(=O)(=O)c1ccc(-c2nc(Nc3n[nH]c(C4CC4)c3Cl)cc(C(=O)O)n2)s1` [Compound 292, 6-[(4-chloro-5-cyclopropyl-1H-pyrazol-3-yl)amino]-2-(5-sulfamoyl-2-thienyl)-pyrimidine-4-carboxylic acid], for which the Ki was greater than 4 µM. In the case of `CC(=O)Nc1cnc(-c2ccccc2)nc1Nc1cc(C2CC2)[nH]n1` [Compound 10, N-(4-(5-cyclopropyl-1H-pyrazol-3-ylamino)-2-phenylpyrimidin-5-yl)acetamide], the Ki lay within 1 to 2 µM. Still for that read-out and setting: next, `CC(=O)c1ccc(-c2ncc(F)c(Nc3cc(C4CC4)[nH]n3)n2)s1` [Compound 137, 1-(5-(4-(5-cyclopropyl-1H-pyrazol-3-ylamino)-5-fluoropyrimidin-2-yl)thiophen-2-yl)ethanone]: 0.01 to 0.05 µM; `NS(=O)(=O)c1ccc(-c2ncc(Cl)c(Nc3cc(C4CCN(C(=O)OCc5ccccc5)C4)n[nH]3)n2)s1` (stereo not shown) [Compound 262, benzyl 3-[5-[[5-chloro-2-(5-sulfamoyl-2-thienyl)-pyrimidin-4-yl]amino]-1H-pyrazol-3-yl]pyrrolidine-1-carboxylate]: 1 to 2 µM; `NS(=O)(=O)c1cccc(-c2ncc(Cl)c(Nc3cc(C4CC4)[nH]n3)n2)c1` [Compound 30, 3-[5-chloro-4-[(5-cyclopropyl-1H-pyrazol-3-yl)amino]-pyrimidin-2-yl]benzenesulfonamide]: 0.01 to 0.05 µM.
